Active and inactive are the calls of the source.
Assays:
[1] = biological target: Potassium voltage-gated channel subfamily KQT member 2 (Rattus norvegicus, UniProt O88943); assay: KCNQ2 potassium channel inhibitors, dose response, cell-based, automated electrophysiology, set II, rat KCNQ2 (AID 588637); assay type: functional
[2] = biological target: Mitochondrial peptide methionine sulfoxide reductase (Bos taurus, UniProt P54149); assay: Absorbance-based biochemical high throughput dose response assay for activators of Methionine sulfoxide reductase A (MsrA).; assay type: functional
Chain of Mitochondrial peptide methionine sulfoxide reductase (P54149 whole entry): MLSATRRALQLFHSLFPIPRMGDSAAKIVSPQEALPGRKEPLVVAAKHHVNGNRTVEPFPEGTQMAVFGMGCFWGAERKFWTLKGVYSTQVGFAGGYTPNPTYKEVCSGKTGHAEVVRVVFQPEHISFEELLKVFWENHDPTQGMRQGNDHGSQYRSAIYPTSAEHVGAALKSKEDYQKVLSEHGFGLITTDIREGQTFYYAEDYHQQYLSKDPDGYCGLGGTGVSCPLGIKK

[3] = biological target: Tyrosyl-DNA phosphodiesterase 2 (Homo sapiens, UniProt O95551); assay: human TDP2 enzyme inhibitors, dose response, biochemical, epi absorbance, IC50 (AID 743297)
Chain of Tyrosyl-DNA phosphodiesterase 2 (O95551 whole entry): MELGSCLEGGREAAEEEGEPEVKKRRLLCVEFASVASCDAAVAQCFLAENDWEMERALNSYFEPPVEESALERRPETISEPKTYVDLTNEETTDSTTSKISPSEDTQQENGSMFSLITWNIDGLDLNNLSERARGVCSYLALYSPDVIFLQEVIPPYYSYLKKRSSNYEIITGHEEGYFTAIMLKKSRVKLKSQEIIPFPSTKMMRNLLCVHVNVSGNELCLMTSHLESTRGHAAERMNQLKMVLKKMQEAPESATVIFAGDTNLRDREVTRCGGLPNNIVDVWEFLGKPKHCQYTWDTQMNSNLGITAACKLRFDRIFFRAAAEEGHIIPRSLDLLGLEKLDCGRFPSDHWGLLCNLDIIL

[4] = biological target: T1, Histone-lysine N-methyltransferase NSD2 (Homo sapiens, UniProt O96028); assay type: biochemical
T1 sequence (O96028 whole entry): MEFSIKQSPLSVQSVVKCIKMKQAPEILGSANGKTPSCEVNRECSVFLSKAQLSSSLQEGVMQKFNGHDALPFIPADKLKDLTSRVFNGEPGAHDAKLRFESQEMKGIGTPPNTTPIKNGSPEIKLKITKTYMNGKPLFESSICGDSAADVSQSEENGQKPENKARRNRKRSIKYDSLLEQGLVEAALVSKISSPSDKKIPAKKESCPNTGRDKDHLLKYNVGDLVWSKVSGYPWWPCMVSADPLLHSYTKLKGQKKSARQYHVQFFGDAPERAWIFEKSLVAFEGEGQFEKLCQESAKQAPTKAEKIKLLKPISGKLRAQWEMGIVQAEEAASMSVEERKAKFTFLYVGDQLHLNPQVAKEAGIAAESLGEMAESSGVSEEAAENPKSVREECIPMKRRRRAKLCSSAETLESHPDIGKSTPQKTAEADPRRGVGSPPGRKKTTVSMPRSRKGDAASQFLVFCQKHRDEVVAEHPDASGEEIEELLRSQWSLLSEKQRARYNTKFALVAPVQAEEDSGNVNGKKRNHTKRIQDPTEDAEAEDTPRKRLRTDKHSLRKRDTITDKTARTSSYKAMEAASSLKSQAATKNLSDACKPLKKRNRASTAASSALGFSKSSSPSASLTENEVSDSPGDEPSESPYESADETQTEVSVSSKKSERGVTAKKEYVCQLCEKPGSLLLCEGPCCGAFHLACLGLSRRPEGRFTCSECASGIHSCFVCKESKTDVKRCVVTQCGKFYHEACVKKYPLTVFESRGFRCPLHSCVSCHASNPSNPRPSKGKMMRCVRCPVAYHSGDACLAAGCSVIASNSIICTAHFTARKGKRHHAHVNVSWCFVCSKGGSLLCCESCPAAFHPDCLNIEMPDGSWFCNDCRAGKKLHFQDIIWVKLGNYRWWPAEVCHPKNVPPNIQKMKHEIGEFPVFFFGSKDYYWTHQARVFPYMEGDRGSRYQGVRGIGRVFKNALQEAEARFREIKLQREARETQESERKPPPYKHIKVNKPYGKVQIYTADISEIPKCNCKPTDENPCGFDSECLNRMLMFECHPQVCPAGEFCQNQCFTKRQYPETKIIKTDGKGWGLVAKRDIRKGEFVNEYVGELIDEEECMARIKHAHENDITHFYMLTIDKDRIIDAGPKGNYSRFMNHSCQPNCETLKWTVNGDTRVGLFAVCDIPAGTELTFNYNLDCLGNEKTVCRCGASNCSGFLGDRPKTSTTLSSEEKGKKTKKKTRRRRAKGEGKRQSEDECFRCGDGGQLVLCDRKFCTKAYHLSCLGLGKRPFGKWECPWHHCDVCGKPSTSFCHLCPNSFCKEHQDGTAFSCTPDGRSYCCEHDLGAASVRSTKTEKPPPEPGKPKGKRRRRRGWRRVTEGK

[5] = biological target: Paired box protein Pax-8 (Homo sapiens, UniProt Q06710); assay: inhibitors of PAX8-driven TPO luciferase reporter, dose response, RMG-I cells, cherry-pick (AID 687027); assay type: functional, cell-based;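 further: luciferase reporter driven by Pax8 target thyroperoxidase promoter measured by SteadyGlo luminescence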
Chain of Paired box protein Pax-8 (Q06710 whole entry): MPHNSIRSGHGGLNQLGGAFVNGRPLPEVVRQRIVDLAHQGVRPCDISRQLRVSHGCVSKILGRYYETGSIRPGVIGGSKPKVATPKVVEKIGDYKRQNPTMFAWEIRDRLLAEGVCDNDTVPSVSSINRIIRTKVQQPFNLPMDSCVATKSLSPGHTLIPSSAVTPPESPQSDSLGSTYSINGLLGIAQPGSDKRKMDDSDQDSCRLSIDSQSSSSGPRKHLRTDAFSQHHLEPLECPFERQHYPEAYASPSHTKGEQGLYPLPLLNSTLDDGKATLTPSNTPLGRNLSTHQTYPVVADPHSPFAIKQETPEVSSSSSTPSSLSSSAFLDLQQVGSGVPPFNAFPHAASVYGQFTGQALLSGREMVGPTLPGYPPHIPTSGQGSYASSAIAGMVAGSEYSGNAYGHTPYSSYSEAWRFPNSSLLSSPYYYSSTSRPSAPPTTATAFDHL

[6] = AlphaScreen signal interference compounds, dose response, artefact control for ARNT-TACC3 interaction inhibitor project, biochemical, luminescence, cherry-pick (AID 651705); assay type: functional;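 further: AlphaScreen bead proximity signal that flags compounds interfering with the detection technology; potency reflects signal decrease which marks the compound as an assay artifact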
[7] = biological target: Induced myeloid leukemia cell differentiation protein Mcl-1 (Homo sapiens, UniProt Q07820); assay type: functional
Chain of Induced myeloid leukemia cell differentiation protein Mcl-1 (Q07820 whole entry): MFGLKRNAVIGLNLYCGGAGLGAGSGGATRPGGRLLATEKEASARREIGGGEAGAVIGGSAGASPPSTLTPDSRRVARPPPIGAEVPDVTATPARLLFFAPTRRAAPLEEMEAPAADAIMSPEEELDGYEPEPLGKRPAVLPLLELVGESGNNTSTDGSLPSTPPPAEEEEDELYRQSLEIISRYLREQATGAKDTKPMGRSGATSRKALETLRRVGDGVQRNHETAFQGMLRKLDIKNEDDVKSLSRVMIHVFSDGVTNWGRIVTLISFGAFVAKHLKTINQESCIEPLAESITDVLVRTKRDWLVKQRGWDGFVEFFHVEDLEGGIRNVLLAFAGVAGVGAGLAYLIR

[8] = Luminescence Cell-Based Dose Response HTS to Identify Inhibitors of 5'UTR Stem-Loop Driven Prion Protein mRNA Translation in H4 Neuroglioblastoma Cells. [Related pubchem assays: 1827 (Project Summary), 1813 (Primary HTS)]; assay type: functional
[9] = inhibitors of firefly luciferase expression or activity, dose response, H4 neuroglioma cells, luminescence (AID 1990); assay type: functional, cell-based
[10] = inhibitors of SNCA 5'UTR-driven reporter translation, confirmation, H4 neuroglioma cells, luminescence (AID 1988); assay type: functional, cell-based
[11] = biological target: T2, ATP-dependent translocase ABCB1 (Homo sapiens, UniProt P08183); assay: ABCB1 efflux inhibitor potency, dose response, Jurkat-DNR cells, JC-1, flow cytometry, set 2 (AID 504569); assay type: functional; conditions: read-out: EC50_MICROM_;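 further: potency of pump inhibitors that raise cellular JC-1 green fluorescence up to the nicardipine level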
T2 sequence (P08183 whole entry): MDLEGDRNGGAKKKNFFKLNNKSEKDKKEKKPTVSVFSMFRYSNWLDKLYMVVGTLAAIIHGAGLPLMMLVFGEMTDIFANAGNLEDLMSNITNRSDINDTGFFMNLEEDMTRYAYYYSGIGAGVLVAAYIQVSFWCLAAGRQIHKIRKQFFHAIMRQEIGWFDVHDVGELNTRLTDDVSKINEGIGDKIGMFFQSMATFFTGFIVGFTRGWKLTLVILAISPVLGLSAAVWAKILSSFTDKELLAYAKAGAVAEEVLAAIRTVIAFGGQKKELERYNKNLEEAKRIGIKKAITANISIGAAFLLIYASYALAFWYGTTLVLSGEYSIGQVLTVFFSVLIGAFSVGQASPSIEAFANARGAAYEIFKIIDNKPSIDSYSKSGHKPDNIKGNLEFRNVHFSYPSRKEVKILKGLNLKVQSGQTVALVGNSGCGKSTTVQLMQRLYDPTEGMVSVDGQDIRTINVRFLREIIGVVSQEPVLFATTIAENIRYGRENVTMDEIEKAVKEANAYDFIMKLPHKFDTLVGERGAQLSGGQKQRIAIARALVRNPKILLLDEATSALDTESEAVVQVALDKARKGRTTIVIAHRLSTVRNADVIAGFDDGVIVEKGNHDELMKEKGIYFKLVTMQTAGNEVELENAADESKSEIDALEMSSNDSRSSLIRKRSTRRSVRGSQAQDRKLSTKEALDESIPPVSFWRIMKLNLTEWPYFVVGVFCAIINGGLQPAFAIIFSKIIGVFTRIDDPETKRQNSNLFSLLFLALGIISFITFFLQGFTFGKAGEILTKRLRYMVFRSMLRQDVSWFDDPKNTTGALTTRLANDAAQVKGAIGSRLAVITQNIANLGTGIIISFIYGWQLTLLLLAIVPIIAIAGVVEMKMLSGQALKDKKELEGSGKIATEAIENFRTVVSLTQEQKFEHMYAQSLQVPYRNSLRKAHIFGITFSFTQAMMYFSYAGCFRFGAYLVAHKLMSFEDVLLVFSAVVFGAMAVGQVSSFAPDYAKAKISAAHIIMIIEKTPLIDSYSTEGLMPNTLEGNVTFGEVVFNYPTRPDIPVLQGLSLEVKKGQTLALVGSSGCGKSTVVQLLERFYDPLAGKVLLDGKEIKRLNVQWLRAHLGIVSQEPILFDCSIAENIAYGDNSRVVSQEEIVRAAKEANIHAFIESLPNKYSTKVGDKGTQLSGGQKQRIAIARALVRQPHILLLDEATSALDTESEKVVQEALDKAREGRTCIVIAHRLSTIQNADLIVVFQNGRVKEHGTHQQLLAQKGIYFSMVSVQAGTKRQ

[12] = biological target: T2, ATP-dependent translocase ABCB1; assay: ABCG2 efflux pump inhibitor potency, dose response, Ig-MXP3 cells, JC-1, flow cytometry, set 2 (AID 504566); assay type: functional; conditions: read-out: EC50_MICROM_;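 further: flow cytometry median green fluorescence of retained JC-1 dye; potency of efflux pump inhibition measured as rising substrate retention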
[13] = biological target: T3, Low molecular weight phosphotyrosine protein phosphatase (Homo sapiens, UniProt P24666); assay type: functional; conditions: read-out: IC50_Mean
T3 sequence (P24666 whole entry, the tested form may be a part): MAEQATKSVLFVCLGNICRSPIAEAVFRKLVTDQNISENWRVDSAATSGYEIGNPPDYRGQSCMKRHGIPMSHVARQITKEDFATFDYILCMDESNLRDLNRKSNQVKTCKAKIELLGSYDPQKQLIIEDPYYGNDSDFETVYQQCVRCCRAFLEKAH

[14] = biological target: T4, Tyrosine-protein phosphatase non-receptor type 22 (Homo sapiens, UniProt Q9Y2R2); assay: LYP phosphatase inhibition for selectivity, dose response, selectivity assay for LMPTP inhibitor project, biochemical, fluorescence, LYP catalytic domain (AID 652006); assay type: functional; conditions: read-out: IC50_Mean
T4 sequence (Q9Y2R2 whole entry): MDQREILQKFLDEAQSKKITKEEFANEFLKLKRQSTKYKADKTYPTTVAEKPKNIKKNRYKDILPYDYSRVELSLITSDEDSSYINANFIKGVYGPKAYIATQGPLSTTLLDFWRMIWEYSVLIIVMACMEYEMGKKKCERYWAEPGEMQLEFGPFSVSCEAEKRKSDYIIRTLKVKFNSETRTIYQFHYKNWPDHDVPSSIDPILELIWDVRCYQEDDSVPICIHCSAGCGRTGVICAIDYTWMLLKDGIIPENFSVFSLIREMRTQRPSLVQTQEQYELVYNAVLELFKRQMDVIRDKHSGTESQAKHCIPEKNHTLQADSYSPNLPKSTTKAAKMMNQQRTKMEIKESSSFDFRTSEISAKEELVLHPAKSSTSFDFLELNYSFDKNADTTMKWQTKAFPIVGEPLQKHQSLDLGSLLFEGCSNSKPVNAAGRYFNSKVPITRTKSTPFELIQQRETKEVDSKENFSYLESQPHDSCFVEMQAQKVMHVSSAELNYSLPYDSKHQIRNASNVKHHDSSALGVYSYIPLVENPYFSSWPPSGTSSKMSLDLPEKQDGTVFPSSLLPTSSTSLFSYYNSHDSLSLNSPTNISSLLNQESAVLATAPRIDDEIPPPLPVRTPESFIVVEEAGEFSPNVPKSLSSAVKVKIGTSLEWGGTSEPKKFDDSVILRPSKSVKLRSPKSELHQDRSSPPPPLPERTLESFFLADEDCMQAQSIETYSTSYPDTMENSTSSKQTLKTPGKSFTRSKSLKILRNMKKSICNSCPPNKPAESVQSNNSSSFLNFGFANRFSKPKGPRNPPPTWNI

[15] = biological target: T3, Low molecular weight phosphotyrosine protein phosphatase; assay type: functional; conditions: read-out: IC50_Mean; remark: listed apart in the source
[16] = biological target: Platelet-activating factor acetylhydrolase (Mus musculus, UniProt Q60963); assay: Late stage assay provider results from the probe development effort to identify inhibitors of pPAFAH: fluorescence-based dose-response biochemical gel-based competitive Activity-Based Protein Profiling (ABPP) assay for SAR compounds.; assay type: functional
Chain of Platelet-activating factor acetylhydrolase (Q60963 whole entry, the tested form may be a part): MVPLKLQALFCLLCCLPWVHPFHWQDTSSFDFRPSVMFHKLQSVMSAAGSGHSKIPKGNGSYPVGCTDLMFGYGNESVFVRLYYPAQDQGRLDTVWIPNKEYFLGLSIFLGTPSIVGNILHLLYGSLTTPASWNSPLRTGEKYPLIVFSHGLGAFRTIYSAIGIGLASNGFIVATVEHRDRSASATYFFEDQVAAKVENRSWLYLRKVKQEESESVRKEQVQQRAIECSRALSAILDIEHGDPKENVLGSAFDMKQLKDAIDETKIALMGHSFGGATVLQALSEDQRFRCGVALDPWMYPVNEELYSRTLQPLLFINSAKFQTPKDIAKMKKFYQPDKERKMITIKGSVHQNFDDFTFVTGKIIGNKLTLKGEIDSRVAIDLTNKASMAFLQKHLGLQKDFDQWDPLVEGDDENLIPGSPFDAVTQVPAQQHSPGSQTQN

[17] = ARNT/TACC3 interaction disruptors, potency, confirmation, biochemical, AlphaScreen, cherry-picked samples (AID 651703); assay type: functional, Homo sapiens;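 further: His-tagged ARNT PAS-B domain paired with GST-TACC3 E629A dimer coactivator fragment; potency of inhibitors that break up the complex and lower AlphaScreen signal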

Chain of Potassium voltage-gated channel subfamily KQT member 2 (O88943 whole entry): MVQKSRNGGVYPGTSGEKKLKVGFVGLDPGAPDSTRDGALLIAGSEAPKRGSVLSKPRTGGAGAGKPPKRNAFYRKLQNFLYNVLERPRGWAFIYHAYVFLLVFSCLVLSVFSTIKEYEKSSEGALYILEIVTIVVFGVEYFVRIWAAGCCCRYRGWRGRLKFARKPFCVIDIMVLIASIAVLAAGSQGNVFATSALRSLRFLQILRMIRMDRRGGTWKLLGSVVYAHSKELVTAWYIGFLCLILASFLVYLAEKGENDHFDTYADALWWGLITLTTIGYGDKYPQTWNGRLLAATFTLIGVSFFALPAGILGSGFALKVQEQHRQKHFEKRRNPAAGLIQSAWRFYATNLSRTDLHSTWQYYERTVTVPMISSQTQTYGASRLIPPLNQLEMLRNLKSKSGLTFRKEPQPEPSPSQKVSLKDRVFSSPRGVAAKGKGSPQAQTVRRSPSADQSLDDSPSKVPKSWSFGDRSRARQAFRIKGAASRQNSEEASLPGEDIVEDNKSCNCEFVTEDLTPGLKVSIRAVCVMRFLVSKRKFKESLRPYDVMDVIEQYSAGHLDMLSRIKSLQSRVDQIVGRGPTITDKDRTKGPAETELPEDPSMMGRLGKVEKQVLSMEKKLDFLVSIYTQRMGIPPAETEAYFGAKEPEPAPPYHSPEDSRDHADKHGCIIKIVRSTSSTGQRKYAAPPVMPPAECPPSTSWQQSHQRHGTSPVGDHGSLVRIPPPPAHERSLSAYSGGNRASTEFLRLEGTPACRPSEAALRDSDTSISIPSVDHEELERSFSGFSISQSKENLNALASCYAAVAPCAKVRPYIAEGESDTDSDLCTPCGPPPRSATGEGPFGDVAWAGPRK

Compound: O=C(COc1ccc(F)cc1)N(c1ccccn1)C1CCCCC1
- IC50 [1]: 1.49 µM (active)

Compound: NC1=CC(=O)C(=O)c2cccnc21
- EC50 [2]: > 34.6 µM (inactive)
- IC50 [3]: 5.99 µM (active)
- AC50 [4]: 0.546 µM (active)
- AC50 [5]: 10.5 µM (active)

Compound: COc1cc2c(cc1O)C[C@H]1NCCc3cc4c(c-2c31)OCO4
- AC50 [6]: 84.2 µM (active)
- IC50 [7]: 5.61 µM (active)
- EC50 [8]: 85.6 µM (active)
- EC50 [9]: 13.2 µM (active)
- EC50 [10]: > 120 µM (not active)

Compound: O=C(c1ccoc1)N1CCN(c2cc(-c3cccnc3)nc3cc(-c4cccc(Cl)c4)nn23)CC1
- EC50 [11]: 0.97 µM (active)
- EC50 [12]: 0.26 µM (active)

Compound: CC(=O)Nc1ccc(CNc2nc(NCc3cccs3)nc3ccsc23)cc1
- IC50 [13]: 15.5 µM (active)
- IC50 [14]: 49.5 µM (inactive)
- IC50 [15]: 13.6 µM (active)

Compound: Cc1cc(N2CCN(C(=O)Oc3ccc(C(F)(F)F)cc3)CC2)c2ccccc2n1
- IC50 [16]: 0.041 µM (active)

Compound: CN1CCN(/N=C/c2nc(-c3ccccc3Cl)n3ccccc23)CC1
- AC50 [17]: 75.6 µM (active)

Reference: ChEMBL document CHEMBL1201862, “PubChem BioAssay data set” (2004)
